Assay results as given in US20260077009A1, “COMPOSITIONS AND METHODS FOR TREATING NEUROLOGICAL DISORDERS” (Neurotech International Ltd, priority 2021, published 2026).

Key:
[1] = Stability of NTI164 in oil at room temperature (UPLC, weekly assay, CBDA as marker)
TNF-alpha = test: Multiplex cytokine/chemokine assay, TNF-alpha; assay type: cell-based, human; settings: 2 μg/ml; Interleukin and Interferon activation
Procedure: (§1) Multiplex Cytokine/Chemokine Assay: Microglia media harvested following treatment initiation was centrifuged briefly to remove particulates (300 g for 10 min). Cytokine and chemokine levels in the microglial media were measured using a Bio-Plex 200 with a 96-well magnetic plate assay according to the manufacturer's instructions (Bio-Rad). Cytokines and chemokines measured included IL-1α, IL-1β, IL-2, IL-6, IL-10, IL-12 (p70), IL-13, G-CSF, GM-CSF, IFNγ, TNFα, CXCL1 (KC), CCL2 (MCP-1), and CCL5 (RANTES). All samples were run in duplicate and data were analyzed with the Bio-Plex Manager software.
(§2) The tubes are then placed in a sonication bath for 10 mins at 35-40 C. Upon completion of the sonication samples are then placed in a tray shaker (200 rpm) for 30 minutes at room temperature. Once completed the samples are then centrifuged at 4400 rpm for 5 minutes. The supernatant is collected for testing and development.
(§3) For the CBD sample, a pure standard (in powder form) was used. CBD 98% isolate was purchased as a reference standard from LGC Standards (London UK) (CAS No. 13956-29-1). The CBD standard reference was prepared at concentration of 1 mg/ml (in acetonitrile). CBD dilutions were made in acetonitrile as follows: 2 μg/ml; 6 μg/ml; and 0.1 μg/ml.

IL-12 = test: Multiplex cytokine/chemokine assay, IL-12; assay type: cell-based, human; settings: 2 μg/ml; Interleukin and Interferon activation; control 99.91
Procedure: as §1, §2, §3

neurons = test: Cell death in an excitotoxic cell injury paradigm; assay type: cell-based; settings: excitotoxic cell injury paradigm (glutamate 3 mM); 2 μg/ml
Procedure: Neuronal viability was quantified using MTT [3-(4,5-dimethylthiazol-2-yl-)-2,5-diphenyl-2H-tetrazolium bromide; Sigma]. […] Cellular excitotoxicity was achieved via glutamate activation (3 mM).

COX-2 = COX-2 immunohistochemistry (protein level) assay in microglial cells; assay type: cell-based, human; settings: 2 μg/ml, N=9
Procedure: Immunohistochemistry (Protein Level) Assay: Cells were fixed for 10 min with 4% paraformaldehyde (PFA) in PBS. After 3×5 minutes washing with PBS, cells were incubated with primary antibodies (anti-COX2) 1:1000 overnight at 4° C., and after 3×5 minutes washing in PBS, cells were then incubated in appropriate fluorescent secondary antibody 1:250 (Invitrogen) for 2 hours at room temperature. After a final wash, as previous, cells nuclei were sained with DAPI in the mounting media. Photomicrographs were taken of the cells in three fields of view per well from duplicate wells and analysed using Fiji for area coverage of each marker.
as §2, §3

| Compound | Cannabinoid concentration in NTI164 (sample 28206-7) ([1]; Day 0 (13 Jul. 2021)) [mg/mL] | Cannabinoid concentration in NTI164 (sample 28206-7) ([1]; Day 2 (15 Jul. 2021)) [mg/mL] | Cannabinoid concentration in NTI164 (sample 28206-7) ([1]; Day 7 (20 Jul. 2021)) [mg/mL] | Cannabinoid concentration in NTI164 (sample 28206-7) ([1]; Day 14 (29 Jul. 2021)) [mg/mL] | Cannabinoid concentration in NTI164 (sample 28206-7) ([1]; Day 28 (12 Aug. 2021)) [mg/mL] | Cannabinoid concentration in NTI164 (sample 28206-7) ([1]; Week 5 (19 Aug. 2021)) [mg/mL] | Cannabinoid concentration in NTI164 (sample 28206-7) ([1]; Week 6 (27 Aug. 2021)) [mg/mL] | Cannabinoid concentration in NTI164 (sample 28206-7) ([1]; Week 32 (12 Sep. 2022)) [mg/mL] | TNF-alpha, Average +/- Standard Deviation (SD) (TNF-alpha) | IL-12, Average +/- Standard Deviation (SD) (IL-12) | Cell death / toxicity (neurons) | COX-2 expression, Avg +/- SEM (COX-2; exposure 1 hour after inflammatory insult (Interleukin and Interferon gamma), positive control 104.26) | COX-2 expression, Avg +/- SEM (COX-2; exposure 1 hour prior to inflammatory insult (Interleukin and Interferon gamma), positive control 94.47) |
| --- | --- | --- | --- | --- | --- | --- | --- | --- | --- | --- | --- | --- | --- |
| CCCCCc1cc2c(c(O)c1C(=O)O)[C@@H]1C=C(C)CC[C@H]1C(C)(C)O2 [(Tetrahydrocannabinolic acid) (D9-THCA), Tetrahydrocannabinolic acid] | 0.66 | 0.72 | 0.64 | 0.69 | 0.36 | 0.79 | 0.73 | <0.1 |  |  |  |  |  |
| C=C(C)[C@@H]1CCC(C)=C[C@H]1c1c(O)cc(CCCCC)cc1O [CBD, Cannabidiol, reference compound] | 0.46 | 0.56 | 0.53 | 0.56 | 0.54 | 0.60 | 0.51 | 0.48 | 71.13 +/− 12.81 | 84.40 +/− 6.54 | toxic | 76.32 +/− 7.95 (SEM) | 84.82 +/− 7.65 (SEM) |
| CCCCCc1cc(O)c2c(c1)OC(C)(CCC=C(C)C)C=C2 (stereo not drawn) [Cannabichrome (CBC), Cannabichrome] | 1.23 | 1.19 | 1.34 | 1.22 | 1.27 | 1.20 | 1.15 | 1.22 |  |  |  |  |  |
| C=C(C)[C@@H]1CCC(C)=C[C@H]1c1c(O)cc(CCCCC)c(C(=O)O)c1O [Cannabidiol acid (CBD-A), Cannabidiol acid] | 48.16 | 48.19 | 48.62 | 48.09 | 47.12 | 48.35 | 47.56 | 47.01 |  |  |  |  |  |
| C=C(C)[C@@H]1CCC(C)=C[C@H]1c1c(O)cc(CCC)cc1O [Cannabidivarin (CBDV), Cannabidivarin] | <0.1 | <0.1 | <0.1 | <0.1 | <0.1 | 0.10 | <0.1 | 0.13 |  |  |  |  |  |
| CCCCCc1cc(O)c(C/C=C(\C)CCC=C(C)C)c(O)c1 [Cannabigerol (CBG), Cannabigerol] | 5.21 | 5.23 | 5.14 | 5.1 | 5.1 | 5.30 | 5.28 | 5.12 |  |  |  |  |  |
| CCCCCc1cc(O)c(C/C=C(\C)CCC=C(C)C)c(O)c1C(=O)O [Cannabigerol Acid(CBG-A), Cannabigerol Acid] | 1.07 | 1.18 | 1.20 | 1.19 | 0.81 | 1.08 | 1.00 | 1.05 |  |  |  |  |  |
| CCCCCc1cc(O)c2c(c1)OC(C)(C)c1ccc(C)cc1-2 [Cannabinol (CBN), Cannabinol] | 2.32 | 2.54 | 2.48 | 2.33 | 2.56 | 2.22 | 2.27 | 2.21 |  |  |  |  |  |
| CCCCCc1cc(O)c2c(c1)OC(C)(C)[C@@H]1CC=C(C)C[C@@H]21 [DELTA-8-THC (D8-THC), DELTA-8-THC] | <0.1 | <0.1 | <0.1 | <0.1 | <0.1 | <0.1 | <0.1 | <0.1 |  |  |  |  |  |
| CCCCCc1cc(O)c2c(c1)OC(C)(C)[C@@H]1CCC(C)=C[C@@H]21 [Tetrahydrocannabinol (D9-THC), Tetrahydrocannabinol] | <0.1 | <0.1 | <0.1 | <0.1 | <0.1 | 0.14 | <0.1 | 0.11 |  |  |  |  |  |
| CCCc1cc(O)c2c(c1)OC(C)(C)[C@@H]1CCC(C)=C[C@@H]21 [Tetrahydrocannabivarin (THCV), Tetrahydrocannabivarin] | <0.1 | <0.1 | <0.1 | <0.1 | <0.1 | <0.1 | <0.1 | <0.1 |  |  |  |  |  |
